Data reported in patent US20250304620A1, “ANTIMICROBIAL PEPTIDE AND APPLICATION THEREOF” (priority 2023, published 2025).
In brackets after ≈: the same amount, converted by molar mass. Marks after values point to notes of the source that are not given here. Non-standard residues stand in square brackets, D forms with d. Residues, ends and D or L forms follow the SMILES beside them. d2Nal = N[C@H](Cc1ccc2ccccc2c1)C(=O)O

What was measured:
[1] = Serum stability assay (residual level by RP-HPLC); conditions: human
[2] = test system: Staphylococcus aureus (NRS 384); conditions: NRS 384, 3 h
Procedure: Trypsin (250 U/mg, pH=8.0) and AMPs (LV-1 to LV-30) were mixed in a ratio of 1:10 (w/w) and added to a reaction buffer (0.2 M sodium phosphate, 1 mM CaCl2), pH 7.5), and then incubated at 37° C. for 3 h.

Enterococcus ATCC 29212 = type: cell-based
Outline: (§1)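 Broth microdilution (CLSI), twofold steps, MIC endpoint, 5× in parallel.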

[3] = test system: Pseudomonas aeruginosa ATCC 27853; type: cell-based
Outline: as §1

[4] = test system: Escherichia coli ATCC 25922; type: cell-based
Outline: as §1

[5] = test system: Trichophyton ATCC MYA-4438; type: cell-based
Outline: as §1

[6] = test system: Candida tropicalis ATCC 750; type: cell-based
Outline: as §1

[7] = test system: Corynebacterium ATCC 7715; type: cell-based
Outline: as §1

[8] = test system: Candida albicans ATCC MYA-2876; type: cell-based
Outline: as §1

[9] = test system: Staphylococcus aureus ATCC 25923; type: cell-based
Outline: as §1

[10] = test system: Klebsiella pneumoniae ATCC 700603; type: cell-based
Outline: as §1

Candida utilis ATCC 9950 = type: cell-based
Outline: as §1

[11] = test system: Bacillus subtilis ATCC 6633; type: cell-based
Outline: as §1

[12] = test system: Serratia marcescens ATCC 29021; type: cell-based
Outline: as §1

[13] = test system: Salmonella typhimurium ATCC 14028; type: cell-based
Outline: as §1

Candida krusei ATCC 6258 = type: cell-based
Outline: as §1

[14] = test system: Candida glabrata ATCC 15126; type: cell-based
Outline: as §1

[15] = test system: Escherichia coli ATCC 25922; assay: Oral formulations on mice with systemic bacterial infection; type: in vivo, ICR mice; conditions: 1 mg/kg gavage, three times a day for 7 days, n = 10; for Average survival times (Days): observed for 14 d
Outline: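 Survival time and deaths were logged over a 14 d observation after oral gavage dosing (by body weight, thrice daily, 7 days, starting right after infection). Model: mixed-sex ICR mice, n=10 per group, intraperitoneal injection of E. coli ATCC 25922 suspension (0.2 mL, 1×10^7 CFU/mL).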

rabbit red blood cells = type: cell-based; conditions: red cells of rabbit, 1 h
[16] = test system: Shigella flexneri ATCC 12022; assay: MIC against clinically common bacterial strain; type: cell-based
Outline: as §1

SMILES | remaining at 12 h, 0.91 mg/mL [1] [%] | Trypsin MIC [2] [µg/mL] | MIC Enterococcus ATCC 29212 (Enterococcus ATCC 29212) [µg/mL] | MIC Pseudomonas aeruginosa ATCC 27853 [3] [µg/mL] | MIC Escherichia coli ATCC 25922 [4] [µg/mL] | MIC Trichophyton ATCC MYA-4438 [5] [µg/mL] | MIC Candida tropicalis ATCC 750 [6] [µg/mL] | MIC Corynebacterium ATCC 7715 [7] [µg/mL] | MIC Candida albicans ATCC MYA-2876 [8] [µg/mL] | MIC Staphylococcus aureus ATCC 25923 [9] [µg/mL] | MIC Klebsiella pneumoniae ATCC 700603 [10] [µg/mL] | MIC Candida utilis ATCC 9950 (Candida utilis ATCC 9950) [µg/mL] | MIC Bacillus subtilis ATCC 6633 [11] [µg/mL] | MIC Serratia marcescens ATCC 29021 [12] [µg/mL] | MIC Salmonella typhimurium ATCC 14028 [13] [µg/mL] | MIC Candida krusei ATCC 6258 (Candida krusei ATCC 6258) [µg/mL] | MIC Candida glabrata ATCC 15126 [14] [µg/mL] | Number of mice that died on each day after infection: day 4 [15] [Mouse] | Number of mice that died on each day after infection: day 5 [15] [Mouse] | Number of mice that died on each day after infection: day 6 [15] [Mouse] | other results
CC(=O)N[C@H](CCCNC(=N)N)C(=O)N[C@H](CCCNC(=N)N)C(=O)N[C@H](CC(C)C)C(=O)N[C@H](CC(C)C)C(=O)N[C@H](Cc1ccc2ccccc2c1)C(=O)N[C@H](CCCNC(=N)N)C(=O)N[C@H](CC(C)C)C(=O)N[C@H](CCCCN)C(=O)N[C@H](Cc1ccc2ccccc2c1)C(=O)N[C@H](CCCNC(=N)N)C(=O)N[C@H](CCCCN)C(N)=O [LV-21] (Ac-[dR][dR][dL][dL][d2Nal][dR][dL][dK][d2Nal][dR][dK]-NH2) | 97.9 | 1 | 4 (≈ 2.39 µM) | 2 (≈ 1.19 µM) | 2 (≈ 1.19 µM) | 4 (≈ 2.39 µM) | 8 (≈ 4.78 µM) | 4 (≈ 2.39 µM) | 8 (≈ 4.78 µM) | 1 (≈ 0.597 µM) | 4 (≈ 2.39 µM) | 8 (≈ 4.78 µM) | 2 (≈ 1.19 µM) | 4 (≈ 2.39 µM) | 2 (≈ 1.19 µM) | 4 (≈ 2.39 µM) | 16 (≈ 9.56 µM) | 1 | 2 | 1 | Number of mice that died on each day after infection: day 7 [15]: 0 Mouse; Number of mice that died on each day after infection: day 8 [15]: 1 Mouse; Average survival times (Days) [15]: 9.8** Days; MHC (minimum hemolytic concentration, lowest concentration causing 10% hemolysis) (rabbit red blood cells): >1000 µg/mL; MIC Shigella flexneri ATCC 12022 [16]: 2 µg/mL (≈ 1.19 µM)
CC(=O)N[C@H](CCCNC(=N)N)C(=O)N[C@H](CCCCN)C(=O)N[C@H](CC(C)C)C(=O)N[C@H](CC(C)C)C(=O)N[C@H](Cc1ccc2ccccc2c1)C(=O)N[C@H](CCCNC(=N)N)C(=O)N[C@H](CC(C)C)C(=O)N[C@H](CCCCN)C(=O)N[C@H](Cc1ccc2ccccc2c1)C(=O)N[C@H](CCCNC(=N)N)C(=O)N[C@H](CCCNC(=N)N)C(N)=O [LV-22] (Ac-[dR][dK][dL][dL][d2Nal][dR][dL][dK][d2Nal][dR][dR]-NH2) | 97.2 | 1 | 2 (≈ 1.19 µM) | 2 (≈ 1.19 µM) | 2 (≈ 1.19 µM) | 4 (≈ 2.39 µM) | 8 (≈ 4.78 µM) | 4 (≈ 2.39 µM) | 8 (≈ 4.78 µM) | 1 (≈ 0.597 µM) | 2 (≈ 1.19 µM) | 16 (≈ 9.56 µM) | 4 (≈ 2.39 µM) | 4 (≈ 2.39 µM) | 4 (≈ 2.39 µM) | 8 (≈ 4.78 µM) | 8 (≈ 4.78 µM) | 0 | 2 | 1 | Number of mice that died on each day after infection: day 7 [15]: 1 Mouse; Number of mice that died on each day after infection: day 8 [15]: 2 Mouse; Average survival times (Days) [15]: 9.5** Days; MHC (minimum hemolytic concentration, lowest concentration causing 10% hemolysis) (rabbit red blood cells): >1000 µg/mL; MIC Shigella flexneri ATCC 12022 [16]: 4 µg/mL (≈ 2.39 µM)
CC(=O)N[C@H](CCCCN)C(=O)N[C@H](CCCNC(=N)N)C(=O)N[C@H](CC(C)C)C(=O)N[C@H](CC(C)C)C(=O)N[C@H](Cc1ccc2ccccc2c1)C(=O)N[C@H](CCCCN)C(=O)N[C@H](CC(C)C)C(=O)N[C@H](CCCCN)C(=O)N[C@H](Cc1ccc2ccccc2c1)C(=O)N[C@H](CCCCN)C(=O)N[C@H](CCCNC(=N)N)C(N)=O [LV-23] (Ac-[dK][dR][dL][dL][d2Nal][dK][dL][dK][d2Nal][dK][dR]-NH2) | 97.5 | 1 | 8 (≈ 4.94 µM) | 2 (≈ 1.24 µM) | 2 (≈ 1.24 µM) | 16 (≈ 9.89 µM) | 4 (≈ 2.47 µM) | 4 (≈ 2.47 µM) | 16 (≈ 9.89 µM) | 1 (≈ 0.618 µM) | 4 (≈ 2.47 µM) | 8 (≈ 4.94 µM) | 4 (≈ 2.47 µM) | 8 (≈ 4.94 µM) | 2 (≈ 1.24 µM) | 4 (≈ 2.47 µM) | 8 (≈ 4.94 µM) | 2 | 1 | 1 | Number of mice that died on each day after infection: day 7 [15]: 0 Mouse; Number of mice that died on each day after infection: day 8 [15]: 1 Mouse; Average survival times (Days) [15]: 9.7** Days; MHC (minimum hemolytic concentration, lowest concentration causing 10% hemolysis) (rabbit red blood cells): >1000 µg/mL; MIC Shigella flexneri ATCC 12022 [16]: 2 µg/mL (≈ 1.24 µM)
CC(=O)N[C@H](CCCNC(=N)N)C(=O)N[C@H](CCCNC(=N)N)C(=O)N[C@H](CC(C)C)C(=O)N[C@H](CC(C)C)C(=O)N[C@H](Cc1ccc2ccccc2c1)C(=O)N[C@H](CCCCN)C(=O)N[C@H](CC(C)C)C(=O)N[C@H](CCCCN)C(=O)N[C@H](Cc1ccc2ccccc2c1)C(=O)N[C@H](CCCCN)C(=O)N[C@H](CCCNC(=N)N)C(N)=O [LV-24] (Ac-[dR][dR][dL][dL][d2Nal][dK][dL][dK][d2Nal][dK][dR]-NH2) | 98.3 | 1 | 4 (≈ 2.43 µM) | 2 (≈ 1.21 µM) | 1 (≈ 0.607 µM) | 4 (≈ 2.43 µM) | 8 (≈ 4.86 µM) | 4 (≈ 2.43 µM) | 8 (≈ 4.86 µM) | 1 (≈ 0.607 µM) | 4 (≈ 2.43 µM) | 8 (≈ 4.86 µM) | 2 (≈ 1.21 µM) | 2 (≈ 1.21 µM) | 1 (≈ 0.607 µM) | 8 (≈ 4.86 µM) | 4 (≈ 2.43 µM) | 1 | 1 | 0 | Number of mice that died on each day after infection: day 7 [15]: 2 Mouse; Number of mice that died on each day after infection: day 8 [15]: 1 Mouse; Average survival times (Days) [15]: 10.1*** Days; MHC (minimum hemolytic concentration, lowest concentration causing 10% hemolysis) (rabbit red blood cells): >1000 µg/mL; MIC Shigella flexneri ATCC 12022 [16]: 2 µg/mL (≈ 1.21 µM)
